Literature values in patent US20060139426A1, “Ink, ink set, processing solution, recording method, recording medium, ink tank, and recording device” (Fuji Xerox Co., Ltd., priority 2004, published 2006).

Compound: O=C(O)c1ccco1 [2-Furancarboxylic acid]
- pKa: 2.4
